Results published in PMC7764601 (Molecules, 2020).
Several values for one entry are separate records, joined by “and”; a condition that tells them apart may be missing. Equal entries are not always repeated. Where two headings read alike, the source gives them in different places. Marks after values point to notes of the source that are not given here.

Legend:
[1] = molecular target: T1, µ receptor of the rat cerebral cortex (Rattus norvegicus, UniProt P33535); experiment: Displacement of [3H-DHM] from µ receptor binding sites of rat cerebral cortex; settings: read-out: Dihydromorphine [3H-DHM] Ki
T1 construct: from tissue; host or cells: rat cerebral cortex

mice [2] = settings: cited from earlier work
mice [3] = test system: mice; design: method as in PMID 11234340, PMID 12484538, PMID 15652370; settings: cited from earlier work; for % Inh. of locomotor activity: series 1
mice [4] = test system: mice; design: method as in PMID 11234340, PMID 12484538, PMID 15652370; settings: series 1, cited from earlier work
in vivo = format: in vivo; settings: male, albino Swiss, mouse, in vivo, ip; mice, intraperitoneal, mortality after 24 h; confidence limits in parentheses
Experimental: (§1) The experiments were carried out on male albino Swiss mice (body weight 18–26 g). All of the animals were housed at constant humidity (60%) and temperature (25 °C) and kept on a 12 h light/dark cycle. Animals were fed a standard pellet diet with free access to tap water. All procedures were conducted according to Animal Care and Use Committee guidelines, and approved by the Ethical Committee of Jagiellonian University, Kraków.
(§2) Control and experimental groups consisted of 6–8 animals each. The investigated compounds were administered intraperitoneally as a suspension in 0.5% methylcellulose in a constant volume of 10 mL/kg.

mice [5] = experiment: “Writhing” test in mice (phenylbenzoquinone); format: in vivo; settings: for ED50: Mus musculus, ip, read-out: ED50 (mg/kg) ± SEM, writhing test
Experimental: as §1, §2
(§3) The statistical significance was calculated using a Student’s t-test. The ED50 values and their confidence limits were calculated according to the method of Litchfield and Wilcoxon.
(§4) Pain reactivity was measured in two tests: “hot plate” test (according to the method of Eddy and Leimbach) and “writhing” test in mice (according to Hendershot and Forsaith).
Then, after 25 min, the irritant (phenylbenzoquinone, 0.02% solution, ethanol-water, 5:95) was also administered intraperitoneally in a constant volume of 0.25 mL. Five min after the application of the irritant,a 10 min long period of observation started, in which the number of writhing episodes was counted.
The analgesic effect of individual doses was expressed in percent:(1) % Analgesic effect=100−∑ of writing incidents in experimental group/∑ of writhing incidents in control group×100

mice [6] = experiment: “Hot plate” test in mice; format: in vivo; settings: hot plate, mice
Experimental: as §1, §2, §3, §4
Animals were placed individually on the metal plate, heated to 55 ± 1 °C. The latency time (s) to the pain reaction (licking of the hind paws or jumping) was recorded by a stop-watch. A cutoff time of 45 s was used to prevent tissue damage.

mice [7] = experiment: Spontaneous locomotor activity in mice (photoresistor actometers); format: in vivo; settings: for ED50: confidence limits in parentheses, read-out: ED50 (mg/kg) ± SEM, spontaneous locomotor activity; for Number of impulses ± SEM (30min): i.p.
Experimental: as §1, §2
Spontaneous locomotor activity in mice was measured in circular photoresistoractometers (32 cm in diameter). […] Thirty minutes after the injection of the investigated compounds, mice were placed in the actometers for 30 min. Each crossing of the light beam was recorded automatically. The amount of impulses was noted after 30 min.

mice [8] = experiment: Thiopental anesthesia (thiopental-induced sleep); format: in vivo; settings: for Prolongation (%) of thiopental anesthesia / Duration of Anesthesia ± SEM: i.p.; for Duration of Anesthesia ± SEM: thiopental
Source text: The pilot biological studies for imides 9 and 11 were supplemented with the determination of the effect of the intraperitoneal administration of the test compounds on the duration of thiopental-induced sleep. The mechanism and the degree of crossing the blood–brain barrier has not been precisely defined. The observed sedative effects may indicate good penetration of compounds into the central nervous system, which, however, has not been confirmed.
as §2

[9] = confidence limits in parentheses
[10] = Mus musculus, ip, 0.5 h, dose 100 mg/kg, read-out: Prolonged Time (%)
[11] = Mus musculus, ip, 0.5 h, dose 200 mg/kg, read-out: Prolonged Time (%)
[12] = Mus musculus, ip, dose 25 mg/kg, read-out: Degree of motor inhibition (%)
[13] = Mus musculus, ip, dose 50 mg/kg, read-out: Degree of motor inhibition (%)
[14] = Mus musculus, ip, dose 100 mg/kg, read-out: Degree of motor inhibition (%)
[15] = Mus musculus, ip, dose 200 mg/kg, read-out: Degree of motor inhibition (%)

T1 sequence (P33535 whole entry): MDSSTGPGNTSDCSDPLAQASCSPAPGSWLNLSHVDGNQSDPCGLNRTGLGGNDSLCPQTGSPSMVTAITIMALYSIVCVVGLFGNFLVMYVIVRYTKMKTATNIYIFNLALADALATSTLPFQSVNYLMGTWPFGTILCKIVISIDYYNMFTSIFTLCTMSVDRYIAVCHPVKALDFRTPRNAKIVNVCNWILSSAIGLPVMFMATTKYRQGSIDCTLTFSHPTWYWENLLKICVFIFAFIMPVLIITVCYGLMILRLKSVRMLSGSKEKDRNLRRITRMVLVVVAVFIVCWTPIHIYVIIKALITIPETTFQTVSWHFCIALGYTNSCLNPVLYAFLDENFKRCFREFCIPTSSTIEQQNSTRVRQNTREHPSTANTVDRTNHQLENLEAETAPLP

| SMILES | Ki [1] | LD50 at 24 h (in vivo) | ED50 (mice [5]; [9]) | Mean no. of writhing ± SEM (mice [5]; i.p., dose 12.5 mg/kg) | Mean no. of writhing ± SEM (mice [5]; i.p., dose 50 mg/kg) | change in vivo at 100 mg/kg (mice [6]; [10]) | change in vivo at 200 mg/kg (mice [6]; [11]) | Time of Reaction to Pain Stimulus (s) ± SEM (mice [6]; dose 100 mg/kg) | Time of Reaction to Pain Stimulus (s) ± SEM (mice [6]; dose 200 mg/kg) | ED50 (mice [7]; Mus musculus, ip) | inhibition at 25 mg/kg (mice [7]; [12]) | inhibition at 50 mg/kg (mice [7]; [13]) | Number of impulses ± SEM (30min) (mice [7]; dose 25 mg/kg) | Number of impulses ± SEM (30min) (mice [7]; dose 50 mg/kg) | Mean no. of writhing ± SEM (mice [5]; i.p., dose 25 mg/kg) | Mean no. of writhing ± SEM (mice [5]; i.p., dose 100 mg/kg) | inhibition at 100 mg/kg (mice [7]; [14]) | inhibition at 200 mg/kg (mice [7]; [15]) | Number of impulses ± SEM (30min) (mice [7]; dose 100 mg/kg) | Number of impulses ± SEM (30min) (mice [7]; dose 200 mg/kg) | also measured |
| --- | --- | --- | --- | --- | --- | --- | --- | --- | --- | --- | --- | --- | --- | --- | --- | --- | --- | --- | --- | --- | --- |
| COc1ccccc1N1CCN(CCCN2C(=O)c3cc(C)nc(OC)c3C2=O)CC1 [Compound 1I] | 30.8 ± 47.8 µM |  |  |  |  |  |  |  |  |  |  |  |  |  |  |  |  |  |  |  | ED50, writhing test (mice [2]; compounds obtained previously (series 1 and 2)): 0.67 mg/kg; % Inh. of locomotor activity (mice [3]; dose 12.5 mg/kg): 53.91%; % Inh. of locomotor activity (mice [3]; dose 25 mg/kg): 72.77%; % Inh. of locomotor activity (mice [3]; dose 50 mg/kg): 76.69%; ED50, influence on the locomotor activity (mice [3]; imides described previously (series 1)): 11.8 mg/kg; Thiopental Anesthesia % Prolong. (mice [4]; dose 12.5 mg/kg): 123.3%; Thiopental Anesthesia % Prolong. (mice [4]; dose 25 mg/kg): 140.3%; Thiopental Anesthesia % Prolong. (mice [4]; dose 50 mg/kg): 207.2% |
| COc1nc(C)cc2c1C(=O)N(CCCN1CCN(c3cccc(Cl)c3)CC1)C2=O [Compound 1J] | > 100 µM |  |  |  |  |  |  |  |  |  |  |  |  |  |  |  |  |  |  |  | ED50, writhing test (mice [2]; imides described previously): 8.8 mg/kg |
| CCOc1nc(C)cc2c1C(=O)N(CCCN1CCN(c3cccc(Cl)c3)CC1)C2=O [Compound 2J] | > 100 µM |  |  |  |  |  |  |  |  |  |  |  |  |  |  |  |  |  |  |  | ED50, writhing test (mice [2]; imides described previously): 8.7 mg/kg |
| COc1ccccc1N1CCN(CCN2C(=O)c3cc(C)nc(OC)c3C2=O)CC1 [Compound 11] |  | > 2000 mg/kg | 3.67 mg/kg | 4.3 ± 1.1 | 1.4 ± 0.6 | 23% | 50.7% | 24.0 ± 5.0 s | 29.4 ± 5.0 s | 19.7 mg/kg | 55.9% | 68.7% | 199.1 ± 48 | 141 ± 63 |  |  |  |  |  |  | ED50 (mg/kg) ± SEM, writhing test (mice [5]; i.p., confidence limits in parentheses): 3.25 mg/kg; Mean no. of writhing ± SEM (mice [5]; i.p., dose 3.125 mg/kg): 17.7 ± 2.4; Mean no. of writhing ± SEM (mice [5]; i.p., dose 6.25 mg/kg): 6.0 ± 2.8; change in vivo at 400 mg/kg (mice [6]; Mus musculus, ip, 0.5 h, dose 400 mg/kg, read-out: Prolonged Time (%)): 105%; Time of Reaction to Pain Stimulus (s) ± SEM (mice [6]; dose 400 mg/kg): 40.0 ± 8.5 s; inhibition at 6.25 mg/kg (mice [7]; Mus musculus, ip, dose 6.25 mg/kg, read-out: Degree of motor inhibition (%)): 28.2%; inhibition at 12.5 mg/kg (mice [7]; Mus musculus, ip, dose 12.5 mg/kg, read-out: Degree of motor inhibition (%)): 55.4%; Number of impulses ± SEM (30min) (mice [7]; dose 6.25 mg/kg): 324 ± 49; Number of impulses ± SEM (30min) (mice [7]; dose 12.5 mg/kg): 201 ± 74; Prolongation (%) of thiopental anesthesia (mice [8]; dose 12.5 mg/kg): 36.3%; Prolongation (%) of thiopental anesthesia (mice [8]; dose 25 mg/kg): 16.11%; Prolongation (%) of thiopental anesthesia (mice [8]; dose 50 mg/kg): 140.8 *** % and 140.8%; effect on duration of thiopental anesthesia (in words) (mice [8]; mouse, in vivo): extended the duration of thiopental anesthesia; Duration of Anesthesia ± SEM (mice [8]; dose 12.5 mg/kg): 70.2 ± 24 min; Duration of Anesthesia ± SEM (mice [8]; dose 25 mg/kg): 50.8 ± 14.2 min; Duration of Anesthesia ± SEM (mice [8]; dose 50 mg/kg): 124 ± 16.2 min |
| CCOc1nc(C)cc2c1C(=O)N(CCN1CCN(c3ccccc3OC)CC1)C2=O [Compound 12] |  | > 2000 mg/kg | 14.9 ± 2.01 mg/kg | 13.9 ± 2.3 | 2.4 ± 0.3 | 28.5% | 52.3% | 22.1 ± 2.7 s | 26.2 ± 3.1 s | 85 ± 4.2 mg/kg | 11.8% | 34.5% | 389 ± 54 | 289 ± 72 | 9.7 ± 1.1 | 1.9 ± 0.4 | 59.2% | 76.2% | 180 ± 41 | 105 ± 48 |  |
| COc1nc(C)cc2c1C(=O)N(CN1CCN(c3cccc(Cl)c3)CC1)C2=O [Compound 13] |  | > 2000 mg/kg | 14.8 mg/kg | 14.1 ± 1.0 | 3.8 ± 1.9 | 4.07% | 11.6% | 17.9 ± 2.4 s | 19.2 ± 1.8 s | 164 ± 28.7 mg/kg |  | 7.93% |  | 406 ± 34 | 5.9 ± 0.8 | 0.8 ± 0.1 | 32.2% | 59.6% | 299 ± 49 | 178 ± 32 |  |
| CCOc1nc(C)cc2c1C(=O)N(CN1CCN(c3cccc(Cl)c3)CC1)C2=O [Compound 14] |  | > 2000 mg/kg | 18.4 mg/kg | 15.1 ± 4.2 | 5.9 ± 1.9 | 2.32% | 16.8% | 17.6 ± 2.4 s | 20.1 ± 2.3 s | 98 ± 13.3 mg/kg | 10.7% | 3.5% | 394 ± 70 | 280 ± 46 | 9.1 ± 0.8 | 1.8 ± 0.3 | 52.4% | 66% | 210 ± 40 | 150 ± 48 |  |
| COc1nc(C)cc2c1C(=O)N(CN1CCN(c3ccccc3Cl)CC1)C2=O [Compound 15] |  | > 2000 mg/kg | 19.2 ± 2.14 mg/kg | 17.2 ± 3.2 | 2.9 ± 1.9 |  | 15.7% | 17.0 ± 2.8 s | 19.9 ± 3.9 s | 89.1 ± 4.46 mg/kg | 9.52% | 42.6% | 399 ± 71 | 253 ± 48 | 9.4 ± 2.2 | 1.4 ± 0.4 | 54% | 65.5% | 203 ± 39 | 152 ± 34 |  |
